Reference: patent US9120771B2, “Azetidine derivative and antidepressant composition including the same” (KOREA INSTITUTE OF SCIENCE AND TECHNOLOGY, priority 2011, dated 2015)
pIC50: −log10 of the molar value. Where a name gives a salt, the structure may show the parent alone. Read-outs that look alike come from different tables or passages of the source.

Assays:
[1] = target: human norepinephrine transporter (Homo sapiens (Human), UniProt P23975); assay: hNET binding assay ([3H]Nisoxetine); settings: for inhibition at 10 µM: read-out: hNET binding assay %-inhibition (10 uM)
Experimental: NE transporter binding assay for evaluating binding of the compound to the norepinephrine transporter was carried out using human recombinant norepinephrine transporter membrane (PerkinElmer Life and Analytical Sciences, USA) expressed in MDCK cells and radioisotope [^3H]Nisoxetine (PerkinElmer).
That is, the test drug, 6 nM [^3H]Nisoxetine, norepinephrine transporter membrane (11 ug/well), 120 mM NaCl and 50 mM Tris-HCl buffer (pH 7.4) containing 5 mM KCl were added to obtain a reaction mixture with a final volume of 0.25 ml. After incubation for 60 minutes at 4° C., the mixture was quickly passed through a Filtermat A glass fiber filter pre-soaked with 0.5% (w/v) PEI (polyethyleneimine) using Inotech Harvester (Inotech) to terminate the reaction. After washing with cold washing buffer (50 mM Tris-HCl, pH 7.4, 0.9% NaCl) solution, the filter was covered with MeltiLex and sealed in a sample bag. After drying in an oven, radioactivity was counted using MicroBeta Plus (Wallac).
Non-specific binding was measured in the presence of 1 uM desipramine. The IC50 value of the test drug was calculated from non-linear regression analysis (GraphPad Prism Program, San Diego, USA) of each %-inhibition value obtained from the drug with concentrations of 7th and 8th steps.

[2] = target: human serotonin transporter (Homo sapiens (Human), UniProt P31645); assay: hSERT binding assay ([3H]Imipramine); settings: for inhibition at 10 µM: read-out: hSERT binding assay %-inhibition (10 uM);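 for all read-outs here: displacement of radiolabeled imipramine from the transporter, incubated 30 min at 27 °C in Tris-HCl pH 7.4 with NaCl and KCl, bound radioactivity counted after filtration, nonspecific binding defined with 200 uM imipramine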
[3] = target: human dopamine transporter (Homo sapiens (Human), UniProt Q01959); assay: hDAT binding assay ([3H]WIN35,428); settings: for inhibition at 10 µM: read-out: hDAT binding assay %-inhibition (10 uM); for pIC50: membrane from CHO-K1 cells, 8 nM [3H]WIN35,428;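 for all read-outs here: displacement of the radioligand from the transporter membranes, incubated 120 min at 4 °C in Tris-HCl buffer with NaCl, pH 7.4, measured by filter-bound radioactivity counting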
[4] = 10 uM, membrane from MDCK cells
[5] = 10 uM, membrane from HEK293 cells
[6] = membrane from HEK293 cells, 2 nM [3H]Imipramine
[7] = membrane from MDCK cells, 6 nM [3H]Nisoxetine

human serotonin transporter, sequence (P31645 whole entry): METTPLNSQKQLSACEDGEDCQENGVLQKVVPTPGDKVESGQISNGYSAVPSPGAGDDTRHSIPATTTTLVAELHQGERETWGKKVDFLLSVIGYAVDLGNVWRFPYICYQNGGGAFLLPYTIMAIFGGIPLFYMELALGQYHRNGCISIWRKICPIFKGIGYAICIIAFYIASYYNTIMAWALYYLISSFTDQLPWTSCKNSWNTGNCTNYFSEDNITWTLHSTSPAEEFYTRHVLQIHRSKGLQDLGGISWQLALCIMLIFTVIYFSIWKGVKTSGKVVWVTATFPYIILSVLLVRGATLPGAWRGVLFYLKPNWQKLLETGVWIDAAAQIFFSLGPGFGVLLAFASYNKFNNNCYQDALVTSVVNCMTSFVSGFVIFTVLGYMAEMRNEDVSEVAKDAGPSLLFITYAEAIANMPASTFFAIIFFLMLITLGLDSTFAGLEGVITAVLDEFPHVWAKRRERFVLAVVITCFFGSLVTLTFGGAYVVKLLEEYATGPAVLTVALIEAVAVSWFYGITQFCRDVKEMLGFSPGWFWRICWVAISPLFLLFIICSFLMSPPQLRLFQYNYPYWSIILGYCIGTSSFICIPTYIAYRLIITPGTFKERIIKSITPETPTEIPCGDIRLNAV
human norepinephrine transporter, sequence (P23975 whole entry): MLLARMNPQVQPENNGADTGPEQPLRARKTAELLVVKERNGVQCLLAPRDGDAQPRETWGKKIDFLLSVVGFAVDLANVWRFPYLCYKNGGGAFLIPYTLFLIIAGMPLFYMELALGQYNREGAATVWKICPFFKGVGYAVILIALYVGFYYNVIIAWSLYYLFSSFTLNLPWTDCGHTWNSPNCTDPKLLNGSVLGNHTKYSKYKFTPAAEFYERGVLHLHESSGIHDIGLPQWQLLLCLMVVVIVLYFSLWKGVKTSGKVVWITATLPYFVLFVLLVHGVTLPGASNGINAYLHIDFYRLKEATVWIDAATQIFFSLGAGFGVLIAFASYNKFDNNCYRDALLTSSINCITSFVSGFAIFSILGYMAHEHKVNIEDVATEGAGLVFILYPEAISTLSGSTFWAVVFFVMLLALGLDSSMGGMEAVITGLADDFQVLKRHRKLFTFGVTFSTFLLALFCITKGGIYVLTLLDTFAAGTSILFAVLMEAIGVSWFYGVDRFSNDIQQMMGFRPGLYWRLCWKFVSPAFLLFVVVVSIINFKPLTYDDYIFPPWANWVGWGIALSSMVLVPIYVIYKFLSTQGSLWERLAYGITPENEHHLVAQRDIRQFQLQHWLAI
human dopamine transporter, sequence (Q01959 whole entry): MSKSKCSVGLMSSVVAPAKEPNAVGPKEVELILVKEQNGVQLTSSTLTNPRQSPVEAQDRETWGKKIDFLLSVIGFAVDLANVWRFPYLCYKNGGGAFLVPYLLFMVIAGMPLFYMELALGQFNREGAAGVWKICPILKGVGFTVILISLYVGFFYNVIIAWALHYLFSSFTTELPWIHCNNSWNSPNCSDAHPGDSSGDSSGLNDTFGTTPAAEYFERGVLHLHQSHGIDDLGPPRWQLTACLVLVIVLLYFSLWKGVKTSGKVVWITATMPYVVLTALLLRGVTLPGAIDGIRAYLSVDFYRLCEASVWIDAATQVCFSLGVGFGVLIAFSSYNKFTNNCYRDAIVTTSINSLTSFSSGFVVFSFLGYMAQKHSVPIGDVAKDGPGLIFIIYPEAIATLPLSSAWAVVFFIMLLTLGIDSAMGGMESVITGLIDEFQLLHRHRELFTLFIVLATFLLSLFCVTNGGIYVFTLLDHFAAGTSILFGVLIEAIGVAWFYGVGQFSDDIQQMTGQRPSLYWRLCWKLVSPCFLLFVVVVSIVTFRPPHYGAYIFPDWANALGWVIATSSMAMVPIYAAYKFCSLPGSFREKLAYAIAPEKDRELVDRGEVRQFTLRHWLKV

Row | melting point [°C] | SMILES | other results
1 | 223 | Cl.OC(c1ccccc1)C1CNC1 (stereo not shown) | 
2 | 228 | COC(c1ccccc1)C1CNC1.Cl (stereo not shown) | 
3 | 205 | CCOC(c1ccccc1)C1CNC1.Cl (stereo not shown) | 
4 | 151 | CCCOC(c1ccc(Cl)c(Cl)c1)C1CNC1.Cl (stereo not shown) | 
5 | 224 | Cl.Fc1ccccc1OC(c1ccc(Cl)c(Cl)c1)C1CNC1 (stereo not shown) | 
6 | 218 | Cl.Fc1cccc(OC(c2ccc(Cl)c(Cl)c2)C2CNC2)c1 (stereo not shown) | 
7 | 210 | Cl.Fc1ccc(OC(c2ccc(Cl)c(Cl)c2)C2CNC2)cc1 (stereo not shown) | 
8 | 197 | Cl.Clc1ccc(C(Oc2ccccc2Cl)C2CNC2)cc1Cl (stereo not shown) | 
9 | 169 | Cl.Clc1cccc(OC(c2ccc(Cl)c(Cl)c2)C2CNC2)c1 (stereo not shown) | 
10 | 201 | Cl.Clc1ccc(OC(c2ccc(Cl)c(Cl)c2)C2CNC2)cc1 (stereo not shown) | 
11 | 225 | Cl.FC(F)(F)Oc1ccccc1OC(c1ccc(Cl)c(Cl)c1)C1CNC1 (stereo not shown) | 
12 | 208 | Cl.FC(F)(F)Oc1cccc(OC(c2ccc(Cl)c(Cl)c2)C2CNC2)c1 (stereo not shown) | 
13 | 217 | Cl.FC(F)(F)Oc1ccc(OC(c2ccc(Cl)c(Cl)c2)C2CNC2)cc1 (stereo not shown) | 
14 | 240 | Cl.Fc1ccc(OC(c2ccc(Cl)c(Cl)c2)C2CNC2)cc1F (stereo not shown) | 
15 | 208 | Cl.Clc1ccc(OC(c2ccc(Cl)c(Cl)c2)C2CNC2)cc1Cl (stereo not shown) | 
16 | 205 | CCOC(c1ccc2ccccc2c1)C1CNC1.Cl (stereo not shown) | 
17 | 223 | CCCOC(c1ccc2ccccc2c1)C1CNC1.Cl (stereo not shown) | 
18 | 218 | Cl.c1ccc(OC(c2ccc3ccccc3c2)C2CNC2)cc1 (stereo not shown) | 
19 | 211 | Cl.Fc1ccccc1OC(c1ccc2ccccc2c1)C1CNC1 (stereo not shown) | 
20 | 216 | Cl.Fc1cccc(OC(c2ccc3ccccc3c2)C2CNC2)c1 (stereo not shown) | 
21 | 214 | Cl.Fc1ccc(OC(c2ccc3ccccc3c2)C2CNC2)cc1 (stereo not shown) | 
22 | 213 | Cc1ccccc1OC(c1ccc2ccccc2c1)C1CNC1.Cl (stereo not shown) | 
23 | 210 | Cc1cccc(OC(c2ccc3ccccc3c2)C2CNC2)c1.Cl (stereo not shown) | 
24 | 203 | Cc1ccc(OC(c2ccc3ccccc3c2)C2CNC2)cc1.Cl (stereo not shown) | 
25 | 207 | Cl.Clc1ccccc1OC(c1ccc2ccccc2c1)C1CNC1 (stereo not shown) | 

Row | melting point [°C] | SMILES | other results
26 | 214 | Cl.Clc1cccc(OC(c2ccc3ccccc3c2)C2CNC2)c1 (stereo not shown) | 
27 | 211 | Cl.Clc1ccc(OC(c2ccc3ccccc3c2)C2CNC2)cc1 (stereo not shown) | 
28 | 228 | Cl.FC(F)(F)Oc1ccccc1OC(c1ccc2ccccc2c1)C1CNC1 (stereo not shown) | 
29 | 217 | Cl.FC(F)(F)Oc1cccc(OC(c2ccc3ccccc3c2)C2CNC2)c1 (stereo not shown) | 
30 | 209 | Cl.FC(F)(F)Oc1ccc(OC(c2ccc3ccccc3c2)C2CNC2)cc1 (stereo not shown) | 
31 | 212 | Cl.Fc1ccc(OC(c2ccc3ccccc3c2)C2CNC2)cc1F (stereo not shown) | 
32 | 217 | Cl.Clc1ccc(OC(c2ccc3ccccc3c2)C2CNC2)cc1Cl (stereo not shown) | 
33 | 215 | CCOC(c1ccc(Cl)c(F)c1)C1CNC1.Cl (stereo not shown) | 
34 | 201 | Cl.Fc1cc(C(Oc2ccccc2)C2CNC2)ccc1Cl (stereo not shown) | 
35 | 198 | Cl.Fc1cc(C(Oc2ccccc2F)C2CNC2)ccc1Cl (stereo not shown) | 
36 | 217 | Cl.Fc1cccc(OC(c2ccc(Cl)c(F)c2)C2CNC2)c1 (stereo not shown) | 
37 | 218 | Cl.Fc1ccc(OC(c2ccc(Cl)c(F)c2)C2CNC2)cc1 (stereo not shown) | 
38 | 205 | Cc1ccccc1OC(c1ccc(Cl)c(F)c1)C1CNC1.Cl (stereo not shown) | 
39 | 203 | Cc1cccc(OC(c2ccc(Cl)c(F)c2)C2CNC2)c1.Cl (stereo not shown) | 
40 | 173 | Cc1ccc(OC(c2ccc(Cl)c(F)c2)C2CNC2)cc1.Cl (stereo not shown) | 
41 | 220 | Cl.Fc1cc(C(Oc2ccccc2Cl)C2CNC2)ccc1Cl (stereo not shown) | 
42 | 204 | Cl.Fc1cc(C(Oc2cccc(Cl)c2)C2CNC2)ccc1Cl (stereo not shown) | 
43 | 203 | Cl.Fc1cc(C(Oc2ccc(Cl)cc2)C2CNC2)ccc1Cl (stereo not shown) | 
44 | 166 | Cl.Fc1cc(C(Oc2ccccc2OC(F)(F)F)C2CNC2)ccc1Cl (stereo not shown) | 
45 | 145 | Cl.Fc1cc(C(Oc2cccc(OC(F)(F)F)c2)C2CNC2)ccc1Cl (stereo not shown) | 
46 | 151 | Cl.Fc1cc(C(Oc2ccc(OC(F)(F)F)cc2)C2CNC2)ccc1Cl (stereo not shown) | 
47 | 216 | Cl.Fc1ccc(OC(c2ccc(Cl)c(F)c2)C2CNC2)cc1F (stereo not shown) | 
48 | 192 | Cl.Fc1cc(C(Oc2ccc(Cl)c(Cl)c2)C2CNC2)ccc1Cl (stereo not shown) | 
49 | 191 | Cl.Fc1cc(C(OCc2ccccc2)C2CNC2)ccc1Cl (stereo not shown) | 
50 | 208 | Cl.Fc1ccc(C(Oc2ccccc2)C2CNC2)cc1Cl (stereo not shown) | 

Row | melting point [°C] | SMILES | other results
51 | 194 | Cl.Fc1ccc(C(Oc2ccccc2F)C2CNC2)cc1Cl (stereo not shown) | 
52 | 209 | Cl.Fc1cccc(OC(c2ccc(F)c(Cl)c2)C2CNC2)c1 (stereo not shown) | 
53 | 211 | Cl.Fc1ccc(OC(c2ccc(F)c(Cl)c2)C2CNC2)cc1 (stereo not shown) | 
54 | 188 | Cl.Fc1ccc(C(Oc2ccccc2Cl)C2CNC2)cc1Cl (stereo not shown) | 
55 | 205 | Cl.Fc1ccc(C(Oc2cccc(Cl)c2)C2CNC2)cc1Cl (stereo not shown) | 
56 | 218 | Cl.Fc1ccc(C(Oc2ccc(Cl)cc2)C2CNC2)cc1Cl (stereo not shown) | 
57 | 209 | Cc1ccccc1OC(c1ccc(F)c(Cl)c1)C1CNC1.Cl (stereo not shown) | 
58 | 151 | Cc1cccc(OC(c2ccc(F)c(Cl)c2)C2CNC2)c1.Cl (stereo not shown) | 
59 | 183 | Cc1ccc(OC(c2ccc(F)c(Cl)c2)C2CNC2)cc1.Cl (stereo not shown) | 
60 | 157 | Cl.Fc1ccc(C(Oc2ccccc2OC(F)(F)F)C2CNC2)cc1Cl (stereo not shown) | 
61 | 157 | Cl.Fc1ccc(C(Oc2cccc(OC(F)(F)F)c2)C2CNC2)cc1Cl (stereo not shown) | 
62 | 187 | Cl.Fc1ccc(OC(c2ccc(F)c(Cl)c2)C2CNC2)cc1F (stereo not shown) | 
63 | 186 | Cl.Fc1ccc(C(Oc2ccc(Cl)c(Cl)c2)C2CNC2)cc1Cl (stereo not shown) | 
64 | 116 | CCCOC(c1ccc(F)c(F)c1)C1CNC1.Cl (stereo not shown) | 
65 | 187 | Cl.Fc1ccc(C(Oc2ccccc2F)C2CNC2)cc1F (stereo not shown) | 
66 | 188 | Cl.Fc1ccc(OC(c2ccc(F)c(F)c2)C2CNC2)cc1 (stereo not shown) | 
67 | 174 | Cl.Fc1ccc(C(Oc2ccccc2Cl)C2CNC2)cc1F (stereo not shown) | 
68 | 152 | Cl.Fc1ccc(C(Oc2cccc(Cl)c2)C2CNC2)cc1F (stereo not shown) | 
69 | 151 | Cc1ccccc1OC(c1ccc(F)c(F)c1)C1CNC1.Cl (stereo not shown) | 
70 | 189 | Cc1cccc(OC(c2ccc(F)c(F)c2)C2CNC2)c1.Cl (stereo not shown) | 
71 | 159 | Cc1ccc(OC(c2ccc(F)c(F)c2)C2CNC2)cc1.Cl (stereo not shown) | 
72 | 183 | Cl.c1ccc(C(Oc2ccc3ccccc3c2)C2CNC2)cc1 (stereo not shown) | 
73 | 175 | Clc1ccc(C(Oc2ccccc2)C2CNC2)cc1Cl (stereo not shown) (as salt: hydrochloride) [KHG26767, 3-((3,4-dichlorophenyl)(phenoxy)methyl)azetidine hydrochloride] | 

Row | SMILES | melting point [°C] | other results
74 | COC(c1ccc(Cl)cc1)C1CNC1.Cl (stereo not shown) [KHG26753, 3-((4-chlorophenyl)(methoxy)methyl)azetidine hydrochloride] | 281 | inhibition at 10 µM [1, 4]: 52%; inhibition at 10 µM [2, 5]: 95%; pIC50 [2, 6]: 7.37; inhibition at 10 µM [3]: 58%
75 | CCOC(c1ccc(Cl)cc1)C1CNC1.Cl (stereo not shown) [KHG26754, 3-((4-chlorophenyl)(ethoxy)methyl)azetidine hydrochloride] | 190 | inhibition at 10 µM [1, 4]: 91%; pIC50 [1, 7]: 6.18; inhibition at 10 µM [2, 5]: 95%; pIC50 [2, 6]: 6.92; pIC50 [3]: 5.71; inhibition at 10 µM [3]: 76%
76 | COC(c1ccc(Cl)c(Cl)c1)C1CNC1.Cl (stereo not shown) [KHG26756, 3-((3,4-dichlorophenyl)(methoxy)methyl)azetidine hydrochloride] | 109 | inhibition at 10 µM [1, 4]: 85%; pIC50 [1, 7]: 6.47; inhibition at 10 µM [2, 5]: 79%; pIC50 [2, 6]: 6.57; inhibition at 10 µM [3]: 54%
77 | CCOC(c1ccc(Cl)c(Cl)c1)C1CNC1.Cl (stereo not shown) [KHG26757, 3-((3,4-dichlorophenyl)(ethoxy)methyl)azetidine hydrochloride] | 156 | pIC50 [1]: 6.82; inhibition at 10 µM [1]: 86%; pIC50 [2]: 7.01; inhibition at 10 µM [2]: 83%; inhibition at 10 µM [3]: 58%
78 | Cl.O=C(OC(c1ccccc1)C1CNC1)c1ccccc1 (stereo not shown) [KHG26771, azetidine-3-yl(phenyl)methyl benzoate hydrochloride] | 215 | inhibition at 10 µM [1, 4]: 54%; pIC50 [2]: 6.40; inhibition at 10 µM [2]: 92%; pIC50 [3]: 5.77; inhibition at 10 µM [3]: 77%
